In patent US12195427B2, “MASP-2 inhibitors and methods of use” (priority 2018, dated 2025):
Where a name gives a salt, the structure may show the parent alone. One block for each compound: values may come before it.

Biological target: MASP-2 CCP2-SP (Homo sapiens (Human), UniProt O00187)
Experiment: MASP-2 co-crystallization, X-ray crystallography and structure analysis (H-bonds, van der Waals contacts);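 for Ligand-pharmacophore element distance, pharmacophore element C2: distance from averaged pharmacophore element to bound ligand; missing value means element absent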;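 for Ligand-pharmacophore element distance, pharmacophore element C3: distance from averaged pharmacophore element to bound ligand; missing value means element absent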;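 for Ligand-pharmacophore element distance, pharmacophore element C4: distance from averaged pharmacophore element to bound ligand; missing value means element absent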;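 for Ligand-pharmacophore element distance, pharmacophore element C5: distance from averaged pharmacophore element to bound ligand; missing value means element absent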
Set-up: van der Waals contact distance, MASP-2 HIS 483 atom CD2 / van der Waals contact distance, MASP-2 HIS 483 atom NE2 / van der Waals contact distance, SER 654 C to compound atom / van der Waals contact distance, SER 654 O to compound atom / van der Waals contact distance, TRP 655 C to compound atom / van der Waals contact distance, MASP-2 GLY 528 atom CA / van der Waals contact distance TRP 655 atom CZ3 / van der Waals contact distance TRP 655 atom N / van der Waals contact distance TRP 655 atom CE3 / van der Waals contact distance GLY 656 atom C / van der Waals contact distance GLY 656 atom CA / van der Waals contact distance GLY 656 atom O / van der Waals contact distance, MASP-2 TYR 607 atom CD1 / van der Waals contact distance, MASP-2 PRO 606 atom O / d(C3,CA1) / d(CA1,N1)2 / d(H4,O1) / d(H4,O2) / d(O1,O2) / d(CA1,O2) / d(CA6,O1) / d(CA6,O2) / d(CA1,C5) / d(O2,H3) / d(N2,C2) / d(CA5,N2) / d(N2,C4) / d(N2,C6) / d(N2,CA3) / d(N2,O3) / d(O4,H2): unit not given beside the values
Settings: for H-bond distance to MASP-2 GLY 656 atom N: GLY 656 N; for H-bond distance to MASP-2 SER 654 atom O: SER 654 O; for H-bond distance to MASP-2 SER 657 atom O: SER 657 O; for van der Waals contact distance, MASP-2 HIS 483 atom CD2 / van der Waals contact distance, MASP-2 HIS 483 atom NE2: Table A2-1; for Ligand-pharmacophore element distance, pharmacophore element C2 / Ligand-pharmacophore element distance, pharmacophore element C3 / Ligand-pharmacophore element distance, pharmacophore element C4 / Ligand-pharmacophore element distance, pharmacophore element C5 / Ligand-pharmacophore element distance, pharmacophore element C6 / Ligand-pharmacophore element distance, pharmacophore element C7 / Ligand-pharmacophore element distance, pharmacophore element CA1 / Ligand-pharmacophore element distance, pharmacophore element CA2 / Ligand-pharmacophore element distance, pharmacophore element CA3 / Ligand-pharmacophore element distance, pharmacophore element CA4 / Ligand-pharmacophore element distance, pharmacophore element CA5 / Ligand-pharmacophore element distance, pharmacophore element CA6: Table A4-1; for a(N1, CA1, O1) b): Methyl-amino-pyridine compounds
Method in brief: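 Inhibitor complexes were obtained by soaking crystals of E. coli-expressed human MASP-2 CCP2-SP constructs, then flash-cooling in liquid nitrogen. Structures solved by molecular replacement (1Q3X search model) from synchrotron diffraction; where several poses existed, only one was analyzed, and nonbonded contacts listed can include H-bonds.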

[1] = Table A5-1 pharmacophore: distance between elements, S2/S1 region
[2] = Table A5-2 pharmacophore distance, S3/S4 region
[3] = Table A7-1, between pharmacophore elements of the bound compound
[4] = Table A8-6, nearest protein atom in cell to the left
[5] = Table A7-2, between pharmacophore elements of the bound compound

Sequence of MASP-2 CCP2-SP (O00187 445-686): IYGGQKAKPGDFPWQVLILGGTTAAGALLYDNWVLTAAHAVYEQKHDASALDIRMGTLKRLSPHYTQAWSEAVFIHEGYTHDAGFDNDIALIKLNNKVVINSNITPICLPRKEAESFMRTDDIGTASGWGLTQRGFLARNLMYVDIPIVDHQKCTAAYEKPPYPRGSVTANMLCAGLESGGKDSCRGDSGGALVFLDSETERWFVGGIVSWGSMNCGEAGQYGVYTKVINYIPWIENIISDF
Sequence of MASP-2 CCP2-SP (O00187 364-432 partner): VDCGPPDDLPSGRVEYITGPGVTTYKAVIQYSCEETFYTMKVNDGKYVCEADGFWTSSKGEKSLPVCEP

H-bond distance to MASP-2 GLN 665 atom OE1 (Table A1 (H-Bonds), GLN 665 OE1): 2.56
H-bond distance to MASP-2 GLY 656 atom N (Table A1 (H-Bonds)): 3.26
H-bond distance to MASP-2 SER 628 atom O (Table A1 (H-Bonds), SER 628 O): 3.01
H-bond distance to MASP-2 SER 633 atom OG (Table A1 (H-Bonds), SER 633 OG): 3.08
H-bond distance to MASP-2 SER 654 atom O (Table A1 (H-Bonds)): 2.94
H-bond distance to MASP-2 SER 657 atom O (Table A1 (H-Bonds)): 2.84
van der Waals contact distance, MASP-2 HIS 483 atom CD2: 3.7
van der Waals contact distance, MASP-2 HIS 483 atom NE2: 3.87
van der Waals contact distance, MASP-2 PHE 529 atom CE2 (Table A2-3): 3.68
van der Waals contact distance, MASP-2 amino acid atom to compound atom (Table A2-7 continued: CYS 629 (CA)): 3.87
van der Waals contact distance, SER 654 C to compound atom (Table A2-11): 3.79
van der Waals contact distance GLY 656 atom C (Table A2-13, MASP-2 GLY 656 C): 3.64
van der Waals contact distance TRP 655 atom CE3 (Table A2-13, MASP-2 TRP 655 CE3, compound atom in line below): 3.76
van der Waals contact distance TRP 655 atom N (Table A2-13, MASP-2 TRP 655 N): 3.89
van der Waals contact distance GLY 656 atom O (Table A2-14, MASP-2 GLY 656 O): 3.3
van der Waals contact distance SER 657 atom C (Table A2-14, MASP-2 SER 657 C, columns c12-c13 (inferred)): 3.7
Ligand-pharmacophore element distance, pharmacophore element C2: 0
Ligand-pharmacophore element distance, pharmacophore element C3: 9.61
Ligand-pharmacophore element distance, pharmacophore element C4: 0
Ligand-pharmacophore element distance, pharmacophore element C5: 0
Ligand-pharmacophore element distance, pharmacophore element C6: 0
Ligand-pharmacophore element distance, pharmacophore element C7: 0
Ligand-pharmacophore element distance, pharmacophore element CA1: 0.54
Ligand-pharmacophore element distance, pharmacophore element CA2: 0
Ligand-pharmacophore element distance, pharmacophore element CA3: 0
Ligand-pharmacophore element distance, pharmacophore element CA4: 0
Ligand-pharmacophore element distance, pharmacophore element CA5: 1.25
Ligand-pharmacophore element distance, pharmacophore element CA6: 1.35
d(CA1,N1) [1]: 3.56
d(CA1,O1) [1]: 7.59
d(CA1,O2) [1]: 6.76
d(CA6,O1) [1]: 2.73
d(CA6,O2) [1]: 2.50
d(H4,O1) [1]: 3.89
d(H4,O2) [1]: 5.39
d(O1,O2) [1]: 4.92
d(O2,H3) [2]: 9.00
a(CA1, O1, O2) (Table A6-1 pharmacophore angle): 100.76
a(O1, CA6, O2) (Table A6-1 pharmacophore angle): 159.18
a(O1, O2, H4) (Table A6-1 pharmacophore angle): 118.45
A(N1, CA1, O1) a) (Table A6-1 pharmacophore angle, all compounds with protonatable center N1 except Methyl-amino-pyridine): 169.37
a(O1, O2, H3) (Table A6-2 pharmacophore angle): 154.86
Pharmacophore torsion angle a(CA6, O1, H4, O2) [3]: −9.94
Pharmacophore torsion angle a(H4, O1, O2, H3) [3]: 30.27
Pharmacophore torsion angle a(N1, CA1, O2, H4) [3]: −154.72
Pharmacophore torsion angle a(O1, H4, O2, CA1) [3]: −146.71
Pharmacophore protein distance to MET_658 (first MET_658 column) (Table A8-6, 6th residue column, nearest protein atom in cell to the left): 1.58
Pharmacophore protein distance to MET_658 (second MET_658 column) (Table A8-6, 9th residue column, nearest protein atom in cell to the left): 2.86
Pharmacophore protein distance to GLY_528 [4]: 3.65
Pharmacophore protein distance to PHE_529 [4]: 2.90
Pharmacophore protein distance to PRO_608 [4]: 3.74
Pharmacophore protein distance to SER_611 [4]: 2.86
Pharmacophore protein distance to TRP_655 (Table A8-6, pharmacophore elements C6, CA3, O3, H1, nearest protein atom in cell to the left): 3.77
SMILES: CNC(=O)c1ccc2c(=O)n(Cc3ccccc3)c(=O)n(CC(=O)NCc3ccc(C(=N)N)cc3)c2c1 [compound 2018, 3-Benzyl-1-(2-((4-carbamimidoylbenzyl)amino)-2-oxoethyl)-N-methyl-2,4-dioxo-1,2,3,4-tetrahydroquinazoline-7-carboxamide]

SMILES: Cc1nc(N)ccc1CNC(=O)[C@H](C)NC(=O)[C@H]1C[C@H](Cc2cc(Cl)cc(Cl)c2)CN1 [compound 1435, (2R,4S)—N—((S)-1-(((6-Amino-2-methylpyridin-3-yl)methyl)amino)-1-oxopropan-2-yl)-4-(3,5-dichlorobenzyl)pyrrolidine-2-carboxamide Dihydrochloride]
H-bond distance to MASP-2 ASP 627 atom OD2 (Table A1 (H-Bonds), ASP 627 OD2): 3.32
H-bond distance to MASP-2 GLY 656 atom N (Table A1 (H-Bonds)): 3.26
H-bond distance to MASP-2 GLY 656 atom O (Table A1 (H-Bonds), GLY 656 O): 2.79
H-bond distance to MASP-2 SER 654 atom O (Table A1 (H-Bonds)): 3.01
H-bond distance to MASP-2 SER 657 atom O (Table A1 (H-Bonds)): 2.84
van der Waals contact distance, MASP-2 amino acid atom to compound atom (Table A2): 3.83
van der Waals contact distance, MASP-2 HIS 483 atom CD2: 3.7
van der Waals contact distance, MASP-2 HIS 483 atom NE2: 3.6
van der Waals contact distance, MASP-2 PHE 529 atom CD2 (Table A2-3): 3.61
van der Waals contact distance, MASP-2 amino acid atom to compound atom (Table A2-7: SER 628 (CB, O, OG)): 3.67
van der Waals contact distance, TRP 655 CA to compound atom (Table A2-12): 3.41
Ligand-pharmacophore element distance, pharmacophore element C2: 0
Ligand-pharmacophore element distance, pharmacophore element C3: 0.15
Ligand-pharmacophore element distance, pharmacophore element C4: 1.37
Ligand-pharmacophore element distance, pharmacophore element C5: 0
Ligand-pharmacophore element distance, pharmacophore element C6: 0.38
Ligand-pharmacophore element distance, pharmacophore element C7: 0
Ligand-pharmacophore element distance, pharmacophore element CA1: 0.6
Ligand-pharmacophore element distance, pharmacophore element CA2: 0.8
Ligand-pharmacophore element distance, pharmacophore element CA3: 0
Ligand-pharmacophore element distance, pharmacophore element CA4: 0
Ligand-pharmacophore element distance, pharmacophore element CA5: 0
Ligand-pharmacophore element distance, pharmacophore element CA6: 0
d(C3,CA1) [1]: 2.85
d(CA1,N1)2 [1]: 1.38
d(CA1,O1) [1]: 4.36
d(CA1,O2) [1]: 3.86
d(H4,O1) [1]: 4.37
d(H4,O2) [1]: 3.79
d(O1,O2) [1]: 3.37
d(N2,C4) [2]: 8.24
d(N2,C4)4 [2]: 8.24
d(N2,C6) [2]: 7.51
d(N2,CA2) [2]: 6.00
d(O2,H3) [2]: 4.33
d(O2,N2) [2]: 2.62
a(C3, CA1, O1) (Table A6-1 pharmacophore angle): 149.49
a(CA1, O1, O2) (Table A6-1 pharmacophore angle): 106.19
a(O1, O2, H4) (Table A6-1 pharmacophore angle): 131.96
a(N1, CA1, O1) b) (Table A6-1 pharmacophore angle): 173.74
a(O1, O2, H3) (Table A6-2 pharmacophore angle): 147.24
a(O1, O2, N2) (Table A6-2 pharmacophore angle): 139.75
a(O2, N2, C4) (Table A6-2 pharmacophore angle): 164.21
a(O2, N2, C4) 2 (Table A6-2 pharmacophore angle): 121.06
a(O2, N2, C6) (Table A6-2 pharmacophore angle): 99.38
a(O2, N2, CA2) (Table A6-2 pharmacophore angle): 157.86
Pharmacophore torsion angle a(C3, CA1, O1, H4) [3]: 24.44
Pharmacophore torsion angle a(H4, O1, O2, H3) [3]: 51.39
Pharmacophore torsion angle a(H4, O1, O2, N2) [3]: 136.22
Pharmacophore torsion angle a(N1, CA1, O1, H4) [3]: 1.43
Pharmacophore torsion angle a(O1, H4, O2, CA1) [3]: −83.48
Pharmacophore torsion angle a(O1, O2, N2, C6) [5]: 137.30
Pharmacophore torsion angle a(O1, O2, N2, CA2) [5]: 123.48

SMILES: Cc1nc(N)ccc1CNC(=O)C(C)NC(=O)C1CC(c2cccc3ccccc23)CCN1.Cl.Cl (stereo not shown) [1297_3]
Ligand-pharmacophore element distance, pharmacophore element C2: 0.28
Ligand-pharmacophore element distance, pharmacophore element C3: 0.23
Ligand-pharmacophore element distance, pharmacophore element C4: 0
Ligand-pharmacophore element distance, pharmacophore element C5: 0
Ligand-pharmacophore element distance, pharmacophore element C6: 0
Ligand-pharmacophore element distance, pharmacophore element C7: 0
Ligand-pharmacophore element distance, pharmacophore element CA1: 0.33
Ligand-pharmacophore element distance, pharmacophore element CA2: 0.22
Ligand-pharmacophore element distance, pharmacophore element CA3: 0
Ligand-pharmacophore element distance, pharmacophore element CA4: 0.94
Ligand-pharmacophore element distance, pharmacophore element CA5: 0
Ligand-pharmacophore element distance, pharmacophore element CA6: 0
d(C3,CA1) [1]: 2.85
d(CA1,N1)2 [1]: 1.39
d(CA1,O1) [1]: 4.43
d(CA1,O2) [1]: 3.92
d(H4,O1) [1]: 4.37
d(H4,O2) [1]: 3.85
d(O1,O2) [1]: 3.55
d(N2,C2) [2]: 1.43
d(N2,CA2) [2]: 5.64
d(O2,H3) [2]: 4.22
d(O2,N2) [2]: 2.72
a(C3, CA1, O1) (Table A6-1 pharmacophore angle): 150.32
a(CA1, O1, O2) (Table A6-1 pharmacophore angle): 107.42
a(O1, O2, H4) (Table A6-1 pharmacophore angle): 129.38
a(N1, CA1, O1) b) (Table A6-1 pharmacophore angle): 174.78
a(O1, O2, H3) (Table A6-2 pharmacophore angle): 143.41
a(O1, O2, N2) (Table A6-2 pharmacophore angle): 144.44
a(O2, N2, C2) (Table A6-2 pharmacophore angle): 132.31
a(O2, N2, CA2) (Table A6-2 pharmacophore angle): 156.50
Pharmacophore torsion angle a(C3, CA1, O1, H4) [3]: 28.95
Pharmacophore torsion angle a(H4, O1, O2, H3) [3]: 50.29
Pharmacophore torsion angle a(H4, O1, O2, N2) [3]: 141.16
Pharmacophore torsion angle a(N1, CA1, O1, H4) [3]: 22.83
Pharmacophore torsion angle a(O1, H4, O2, CA1) [3]: −86.03
Pharmacophore torsion angle a(O1, O2, N2, C2) [3]: 114.36
Pharmacophore torsion angle a(O1, O2, N2, CA2) [5]: 129.56
Pharmacophore torsion angle a(O1, O2, N2, CA4) [5]: 108.64
